Consider 2 substances from patent US20130274196A1, “METHOD FOR TREATMENT OF INFLAMMATORY DISEASE AND DISORDER” (HEALOR LTD., priority 2010, published 2013).

The test system of experiment [1] is keratinocytes. Nature of the experiment: Cytokine secretion in stimulated keratinocytes treated with PKCδ activator (ELISA). The class given is cell-based, BALB/C mice. The following applies: stimulated by LPS or TNFα, 48 hr. Here is the method: (§1) PKCδ activators were also shown to have an anti-inflammatory effect on keratinocytes and splenocytes. Keratinocytes were derived from newborn BALB/C mice skin. The cells were incubated for 5 days in 24 wells plate. Cells were then incubated with PBS −/− as control or stimulated by LPS or TNFα. The PKCδ […] DAP-1 (SEQ ID NO: 34) was added. Medium containing secreted cytokines was collected after 48 hr and analyzed using ELISA. FIG. 43 is a tabular summary showing cytokine secretion in splenocytes stimulated with LPS. FIG. 44 is a tabular summary of cytokine secretion in keratinocytes stimulated by TNFα.

Experiment [2] has as its system splenocytes. Nature of the experiment: Cytokine secretion in LPS stimulated splenocytes treated with PKCδ activator. The class given is cell-based. As for the experimental part: as §1
Experiment [3] relates to IKK. The experiment is described as follows: TNFα induced IKK activation in keratinocytes (phospho-IKKa/b Western blot). The following applies: 1 hour pretreatment, TNFα 35 ng/ml 15 minutes. In kind it is cell-based, Murine. As for the experimental part:
Murine primary keratinocytes were grown for 4 days to full confluence in Low Ca^+2 MEM. Cells were pretreated with designated concentration of MPDY-1 as described in the figure for 1 hour, prior to TNFα induction. Following MPDY-1 pretreatment, cells were incubated with TNFα 35 ng/ml for 15 minutes. Reaction was stopped by adding ice-cold dPBS−/− and keratinocytes were homogenized in RIPA buffer. Samples were subjected to SDS PAGE Western Blot analysis, utilizing phospho-IKKa/b (Ser176/180 antibody).

The subject of experiment [4] is histamine induced pruritus. Nature of the experiment: Histamine prick test model of pruritus. To be noted: for Pruritus score: scale 0-4, individual subject. The class given is in vivo, healthy volunteers. As for the experimental part: Forearms of individual subjects were injected with histamine solution and placebo. The formulation of Example 4 was topically applied with MPDY-1 at various concentrations and pruritus was assessed over a time course as shown in FIGS. 39-42.
This test was performed by placing a drop of a solution containing a possible allergen on the skin, and a series of scratches or needle pricks allow the solution to enter the skin. The extract enters into the outer layer of the skin (epidermis) using a fine needle (such as a. 26G disposable needle). This testing is not painful, and generally there is no bleeding involved since the needle only scratches the surface of the skin. If the skin develops a red, raised itchy area (called a wheal), it is as a result of allergic reaction to that allergen. This is called a positive reaction. A drop of extract is introduced through a fine needle (such as a No. 26 disposable needle). The test causes no discomfort and minimal trauma so that controls and negative test show only the site of the prick; if anything.
26G needles were utilized to introduce histamine stock (Histatrol Positive Control Histamine, 1 mg/ml, code #HIST14999V, Trupharm). The test was conducted on healthy volunteers in a double-blind, randomized test. The formulations were applied on the forearms. Three treatment areas were chosen and marked (the surface of the forearm from the elbow to the wrist was divided transversely into proximal, middle and distal thirds); the areas were pricked prior the below treatments.
An area was treated with the active formulation in a double-blind manner, for 10 minutes—marked as A.
An area was treated with the Placebo in a double-blind manner, for 10 minutes—marked as C.
A color photograph was taken at time zero (T0), after 10, 20, 30 minutes.
Pruritus questionnaire was answered by the subjects 5 and 15 minutes after treatment.
Subjects were provided with pruritus sensation forms and asked to indicate the level of pruritus sensed from 0 (no response) to 4 (uncontrollable pruritus) at different time intervals.

The subject of experiment [5] is activated macrophages. The experiment is described as follows: Macrophage activation in skin wound (MAC-2 staining). The class given is in vivo, C57BL/6J mouse. The following applies: daily treatment, 5 days; p(control vs 10 μg)=0.0028. As for the experimental part:
The effect of MPDY-1 on macrophage activation was also shown by MAC-2 staining. MAC-2 is a specific marker for activated macrophages. […] A two-cm longitudinal incision was done as described above. Animals were treated daily with DPBS^−/− (Control) or MPDY-1 in the specified concentrations (n=6). After 5 days immunohistochemical staining was performed utilizing anti-MAC-2 antibodies. Bar […]. (*p(control Vs. MPDY-1 10 μg)=0.0028).

Experiment [6] relates to EAE mice. The experiment is described as follows: Experimental allergic encephalomyelitis (EAE), MOG35-55/CFA immunized mice. In kind it is in vivo, C57BL/6J mice. The following applies: for Score on day 18 / Score on day 29 / Score on day 37: EAE scale 0-6; for EAE score on the initial day: scale 0-6.
For experiment [7], the system named is STZ-induced diabetic C57BL/6J mice. The experiment is described as follows: Wound healing in STZ-induced diabetic mice. In kind it is in vivo. Here is the method: Full thickness skin incisions (20 mm) were performed on the upper back of anesthetized streptozocin (STZ)-injected (175 mg/kg body weight) diabetic, citrate buffer injected (6 mice/group) non-diabetic, and non-injected (6 mice/group), C57BL/6J mice. Periodical blood glucose monitoring was performed by measuring glucose levels from tail vein after STZ injection. […] Following incision, STZ-induced diabetic wounds were treated daily by application of PBS (7/6 mice/group), insulin (0.1 units/ml) (6 mice/group), the PKCa inhibitor of SEQ ID NO:6 (1 μg/ml) (7/5 mice/group) or a formulation (herein designated HO/03/03) containing insulin and the N-myristoylated PKCα inhibitor of SEQ ID NO: 6 (7/6 mice/group) directly to the surgical dressing. Biopsies were collected 9 days post-wounding. Wounds were excised from euthanized animals for evaluation of wound-healing parameters by histology and immunohistochemistry.
Wounds were assessed for epidermal closure by Keratin 14 staining. Wounds were considered closed when complete epidermal staining was observed across the wound gap. Dermal contraction was considered when both dermal edges were visible in a fixed field ×100 magnification utilizing H&E staining. Epidermal differentiation was assessed by Keratin 1 staining.
The organization of hypodermis was assessed by the presence (or absence) of hypodermis at both wound edges. Granulation tissue formation was assessed by the presence of fibroblasts and collagen fibers in the wound bed. The wound was considered positive for granulation tissue formation when a continuous layer of granulation tissue was present in the wound gap. In addition, we have defined 3 specific histological parameters characterizing severe inflammation of diabetic wounds: (i) abscess formation at the wounded area, (ii) excessive leukocytosis (>100 cells in a fixed field (×200)) and (iii) high white blood cells (WBC)/red blood cells (RBC) ratio within the blood vessels shown in a fixed field (×200). When at least 2 of these parameters are present at the wound gap, the wound is considered severely inflamed.

The test system of experiment [8] is C57BL mice. Nature of the experiment: Incision wounds treated 7 days, severe inflammation incidence (Example 10). The class given is in vivo. To be noted: 1 μM daily for 7 days. As for the experimental part:
Wounds were performed on the back of C57BL mice by incision and were treated daily for 7 days with: (i) PBS, control; (ii) 1 μM of the PKCα inhibitor of SEQ ID NO: 6; (iii) 1 μM insulin (Humulin, Eli Lilly, USA); or (iv) a mixture of 1 μM PKCα inhibitor and 1 μM insulin.

Experiment [9] relates to macrophages. The experiment is described as follows: Macrophage infiltration in skin wound (Iba-1 staining). The class given is in vivo, C57BL/6J mouse. The following applies: daily treatment, five days post-wounding. Here is the method: The effect of MPDY-1 on macrophage infiltration was also shown by Iba-1 staining. Iba-1 is a general marker for macrophages. […] As above, a two-cm longitudinal incision was done on the upper back of a C57BL/6J mouse. Following wounding, a sterile pad was sutured to the mouse's skin. Animals were treated daily with MPDY-1 (n=6). Five days post-wounding, when inflammatory phase reaches its peak, the mice were sacrificed, skin tissues were embedded in paraffin and immunohistochemical staining was performed utilizing anti-Iba-1 antibodies.

The subject of experiment [10] is keratinocytes. The experiment is described as follows: Cytokine secretion in LPS, TNFα or IL-17 activated keratinocytes treated with peptide PKCα inhibitors (ELISA). The class given is cell-based, BALB/C mice. Here is the method:
To determine their effects, keratinocytes were derived from newborn BALB/C mice skin. The cells were incubated for 5 days in 24 wells plate. Cells were then incubated with PBS −/− as control or stimulated by LPS, TNFα, or IL-17. PKCα inhibitors were added as indicated. Medium containing secreted cytokines was collected after 48 hr and analyzed using ELISA. FIG. 50 is a tabular summary of cytokine secretion.

Setting [11] is: 9-days post wounding, percent of wounds in group, insulin 0.1 units, HO/02 1 ug/ml.
Setting [12] is: 9-days post wounding, percent of wounds in group, insulin 0.1 units, SEQ ID NO: 6 1 ug/ml.

“Also recorded” adds a separate entry of the source. The star is where a group is joined. Myristoyl = CCCCCCCCCCCCCC(=O)*

Consider “H-His-Phe-Glu-Asp-Trp-Ile-Asp-His-Phe-Glu-Asp-Trp-Ile-Asp-OH (H-HFEDWIDHFEDWID-OH) [DAP-1]”, for which the “inflammatory cytokine secretion in keratinocytes” value in experiment [1] was “significantly decease inflammatory cytokine secretion”. For the same substance, the “inflammatory cytokine secretion in splenocytes” value in experiment [2] was “significantly decease inflammatory cytokine secretion”.
For “Myristoyl-Phe-Ala-Arg-Lys-Gly-Ala-Leu-Arg-Gln-OH (Myristoyl-FARKGALRQ-OH; SMILES CCCCCCCCCCCCCC(=O)N[C@@H](Cc1ccccc1)C(=O)N[C@@H](C)C(=O)N[C@@H](CCCNC(=N)N)C(=O)N[C@@H](CCCCN)C(=O)NCC(=O)N[C@@H](C)C(=O)N[C@@H](CC(C)C)C(=O)N[C@@H](CCCNC(=N)N)C(=O)N[C@@H](CCC(N)=O)C(=O)O) [MPDY-1]”, in experiment [3], the “TNFα induced IKK activation in keratinocytes” value was “significantly reduced TNFα induced IKK activation” and the “concentration exhibiting the strongest inhibition of IKK activation (lowest concentration)” value is 0.1 mg/mL. In experiment [4] (5 minutes after histamine, MPDY-1 1 μg/ml (A1)), this substance registered a Pruritus score of 3. Moreover, the Pruritus score in experiment [4] (5 minutes after histamine, MPDY-1 10 μg/ml (A2)) is recorded as 2. Also, the Pruritus score in [4] (15 minutes after histamine, MPDY-1 1 μg/ml (A1)) is 1. For the same substance, the Pruritus score in experiment [4] (15 minutes after histamine, MPDY-1 10 μg/ml (A2)) is recorded as 0. Moreover, in [4] (topical application), the “redness, inflammation and pruritus compared with control over the time course” value was “significantly attenuated redness, inflammation and pruritus”. In experiment [5], the “activation of macrophages (MAC-2 positive cells per field)” value was “significantly inhibited”. In addition, in [6] (0.1 mg/kg), the “The initial day (of illness signs)” value worked out at 13 days, the “Score on day 18” value is reported as 2.571, the “Score on day 29” value was 2.000 and the “Score on day 37” value amounted to 1.500. Besides, the “EAE score on the initial day” value in experiment [6] (0.1 mg/kg) is on record as 1.000. In [6] (0.1 mg/kg (0.1 μg/ml)), the “EAE severity / score compared to control group” value is recorded as “lower score during most of the experiment days; also recorded: reduced EAE severity” and the “delay of development of EAE clinical conditions compared to control group” value is “two days later than the control group; also recorded: two days delay”. For the same substance, in experiment [6] (1 mg/kg), the “The initial day (of illness signs)” value turned out to be 11 days, the “Score on day 18” value was found to be 3.143, the “Score on day 29” value turned out to be 3.286 and the “Score on day 37” value came out at 3.071. Besides, the “EAE score on the initial day” value in [6] (1 mg/kg) worked out at 0.214. For the same substance, the “Number of dead mice during 49 days” value in experiment [6] (1 mg/kg i.p. three times a week, n=7) was found to be 2. Moreover, the “average group score at the end of the experiment (day 42)” value in experiment [6] (concentration of 0.1 μg/ml, control group score 2.86) is given as 1.93. Also, in experiment [7] (setting [11]), the “Dermal closure (H&E)” value stood at 17%, the “Epidermal closure (K14)” value is recorded as 17% and the “Epidermal differentiation (Kl)” value stood at 17%. In experiment [7] (setting [12]), this substance returned a Granulation tissue of 50%, a Hypodermis of 10% and a Severe inflammation of 30%. Also, in experiment [7] (9 days post-wounding), the “overall healing effect in diabetic wounds” value was “only partial healing effects”. Moreover, in experiment [8], the “decrease of severe wound inflammation incidence, as compared to control” value came out at 33.3%. Further, in [8] (PBS control 60), the “Incidence of severe inflammation in wound (%)” value is 40%. Besides, the “macrophage infiltration (Iba-1 positive cells per field)” value in experiment [9] was “dose dependent effect”. The “cytokine secretion from IL-17A activated keratinocytes” value in experiment [10] (IL-17A activated) is recorded as “decrease cytokine secretion”. The “cytokine secretion from LPS and TNFα activated keratinocytes” value in experiment [10] (LPS and TNFα activated) is given as “decrease cytokine secretion”. The “cytokine secretion in keratinocytes” value in experiment [10] (stimulated by LPS, TNFα, or IL-17, medium collected after 48 hr) is recorded as “effective in decreasing cytokine secretion”.
